Results reported in PMC11524583, “Neurons enhance blood–brain barrier function via upregulating claudin-5 and VE-cadherin expression due to glial cell line-derived neurotrophic factor secretion” (eLife, 2024).
Values joined by “and” are separate entries in the source; they are usually repeats but may differ in a detail not shown here. Identical values can stand only once. “Also recorded” adds a separate entry of the source. Like-named read-outs stand apart in the source and are kept apart here. Marks after values point to notes of the source that are not given here.

Key:
[1] = unbound fraction in brain, cited from earlier work
[2] = In vitro BBB permeability study (Papp), hCMEC/D3 mono-culture BBB model; conditions: human
[3] = system: hCMEC/D3 mono-culture BBB model; assay: as above; conditions: for PS: PS worked out from mean Papp
[4] = system: triple co-culture BBB model (hCMEC/D3, U251 and SH-SY5Y cells); assay: In vitro BBB permeability study (Papp), triple co-culture BBB model; conditions: for PS: PS worked out from mean Papp
[5] = as above; conditions: human
[6] = system: VE-cadherin; assay: Western blot of VE-cadherin expression in hCMEC/D3 cells; format: cell-based, Homo sapiens; conditions: hCMEC/D3 cells, anti-GDNF antibody 0.25, 0.5, 1.0 μg/ml; for GDNF-induced VE-cadherin expression: 200 pg/ml GDNF, 3 μM SPP-86, 5 μM PP2, 3 μM LY294002, 2 μM U0126, 5 μM SP600125, 2 μM SB203580
Experimental: (§1) Whole-cell and tissue lysates, nucleoprotein, and cytoplasmic protein were prepared using RIPA Lysis Buffer (Beyotime, Shanghai, China) as the described method ([Wu et al., 2021]). Proteins were separated through sodium dodecyl sulfate–polyacrylamide gel electrophoresis and transferred onto nitrocellulose or polyvinylidene difluoride membranes. The membranes were blocked with 5% skim milk and incubated with corresponding primary antibodies at 4°C overnight. After being washed with Tris-buffered saline Tween buffer, the membranes were incubated with secondary antibodies (Cell Signaling Technology, MA, USA) at 1:3000 dilution: Anti-mouse IgG, HRP-linked Antibody (#7076), Anti-rabbit IgG, HRP-linked Antibody (#7074). Protein levels were visualized using a highly sensitive ECL western blotting substrate and a gel imaging system (Tanon Science & Technology, Shanghai, China).
(§2) CM of U251 cells (U-CM), SH-SY5Y cells (S-CM), or co-culture of U251 and SH-SY5Y cells (US-CM) was prepared. U251 cells were seeded at the top of the insert membrane and suspended on 6-well plates seeded with differentiated SH-SY5Y cells to co-culture U251 cells with SH-SY5Y cells. The medium was collected every 24 hr. The CMs were subsequently used for hCMEC/D3 cell culture after filtrating with 0.2 μm filters for 144 hr. The levels of GDNF, bFGF, IGF-1, and TGF-β in CMs were measured using corresponding ELISA kits according to the manufacturers’ instructions.
(§3) Exogenous and endogenous GDNF in the medium was neutralized with anti-GDNF antibody (#AF-212-NA, R&D system, Minneapolis, MN, USA). 0.25, 0.5, and 1.0 μg/ml anti-GDNF antibody was added into the US-CM or medium containing 200 pg/ml GDNF, and then the medium was preincubated at 4°C for 1 hr. The hCMEC/D3 cells were incubated with 200 pg/ml GDNF or US-CM containing anti-GDNF antibody or not for 6 days, and then cell lysate was collected for western blot. The medium was replaced every 24 hr.
(§4) Here, hCMEC/D3 cells were plated in the plates or culture dishes at 6 × 10^4 cells/cm^2 and transfected with 10 nM of negative control or human FOXO1, ETS1, and CDH5 siRNA (Tsingke Biotechnology, Beijing, China) for 12 hr using Lipofectamine 3000 (Invitrogen, Carlsbad, CA, USA) reagent according to the manufacturer’s instructions. Cells were then incubated with a medium containing GDNF for 72 hr.

[7] = system: hCMEC/D3 mono-culture BBB model; assay: TEER of hCMEC/D3 mono-culture BBB model; format: cell-based, Homo sapiens; conditions: hCMEC/D3 mono-culture, 200 pg/ml GDNF, day 6; 3 μM SPP-86 or 5 μM PP2
[8] = system: claudin-5; assay: Western blot of claudin-5 expression in hCMEC/D3 cells; format: cell-based, Homo sapiens; conditions: hCMEC/D3 cells, anti-GDNF antibody 0.25, 0.5, 1.0 μg/ml; for GDNF-induced claudin-5 expression: 200 pg/ml GDNF, 3 μM SPP-86, 5 μM PP2, 3 μM LY294002, 2 μM U0126, 5 μM SP600125, 2 μM SB203580
Experimental: as §1, §2, §3, §4
The plasmids encoding FOXO1 (EX-Z7404-M02) were constructed by GeneCopoeia (Rockville, MD, USA). The hCMEC/D3 cells were plated in plates or dishes at 6 × 10^4 cells/cm^2. They were subsequently transfected with 1 µg of negative control or plasmids encoding FOXO1 6 hr using Lipofectamine 3000 reagent according to the manufacturer’s instructions. Transfected cells were then incubated with the medium containing GDNF for 72 hr.

[9] = system: triple co-culture BBB model (hCMEC/D3, U251 and SH-SY5Y cells); assay: TEER of triple co-culture BBB model; format: cell-based, Homo sapiens; conditions: for TEER: Figure 2Q, group Triple+SPP, individual replicates, listed as SPP
Experimental: The establishment process of the triple co-culture model is illustrated in Figure 9. SH-SY5Y cells were seeded at a density of 4.5 × 10^4 cells/cm^2 in plates and differentiated with 10 μM retinoic acid (Sigma-Aldrich, St. Louis, MO, USA) for 72 hr. The differentiated SH-SY5Y cells were cultured in the fresh DMEM/F12 medium containing 10% FBS. U251 cells were seeded at 2 × 10^4 cells/cm^2 on the bottom of Transwell inserts (PET, 0.4 µm pore size, SPL Life Sciences, Pocheon, Korea) coated with rat-tail collagen (Corning Inc, Corning, NY, USA). Next, the inserts were suspended in plate wells containing the culture medium after 5 hr of incubation. After 24 hr of incubation, hCMEC/D3 cells were seeded on the apical side of the inserts at 3 × 10^4 cells/cm^2 and cultured for another 48 hr. Then, the inserts seeded with U251 and hCMEC/D3 cells were suspended in plates seeded with differentiated SH-SY5Y cells and co-cultured for another 6 days. The culture medium was replaced every 24 hr. TEER was periodically measured using a Millicell-ERS (MERS00002) instrument (Millipore, Billerica MA, USA) to monitor cell confluence and development of TJs.

[10] = in situ brain perfusion in rodents, published permeability multiplied by VSA 150 cm^2/g, cited from earlier work
[11] = in vitro; conditions: human
[12] = in vitro; conditions: human; remark: listed apart in the source
[13] = system: hCMEC/D3 mono-culture BBB model; conditions: human
[14] = Papp, Mono, apical to basolateral, 30 min, 37°C, day 6, mean ± SEM, four biological replicates
[15] = Papp, Triple, apical to basolateral, 30 min, 37°C, day 6, mean ± SEM, four biological replicates
[16] = US-CM, 3 μM SPP-86, 5 μM PP2, 3 μM LY294002, 2 μM U0126

Compound: COc1ccc(C(CN(C)C)C2(O)CCCCC2)cc1 (centres unmarked) [Venlafaxine]
- fu, brain ([1]; ref Esaki et al., 2019): 0.205^*
- Papp A→B at 30 min ([2]; Papp (individual replicate), Mono-culture BBB Model, single replicate values (4 per drug)): 10.3 ×10⁻⁶ cm/s
- Papp A→B at 30 min [2, 14]: 9.58 ± 0.28 ×10⁻⁶ cm/s
- PS ([3]; Mono-culture BBB Model): 420.60 µL/min/g
- PSPre, Mono ([3]; PSPre = Papp×60×VSA×1000/fu,brain, VSA 150 cm^2/g, from Papp, Mono): 420.60 µL/min/g
- Papp A→B ([3]; read-out: Papp (individual replicate), Mono-culture BBB Model, single replicate values (4 per drug)): 8.74 ×10⁻⁶ cm/s and 9.52 ×10⁻⁶ cm/s and 9.75 ×10⁻⁶ cm/s
- PS ([4]; Triple co-culture BBB model): 362.02 µL/min/g
- Papp A→B ([4]; read-out: Papp (individual replicate), Triple co-culture BBB model, single replicate values (4 per drug)): 8.5 ×10⁻⁶ cm/s and 9.29 ×10⁻⁶ cm/s and 7.72 ×10⁻⁶ cm/s
- Papp A→B at 30 min ([5]; Papp (individual replicate), Triple co-culture BBB model, single replicate values (4 per drug)): 7.48 ×10⁻⁶ cm/s
- Papp A→B at 30 min [5, 15]: 8.25 ± 0.36 ×10⁻⁶ cm/s

Compound: Nc1nnc(-c2cccc(Cl)c2Cl)c(N)n1 [Lamotrigine]
- fu, brain ([1]; ref Summerfield et al., 2007): 0.273^†

Compound: CC(C)n1nc(C#Cc2ccccc2)c2c(N)ncnc21 [SPP-86]
- GDNF-induced VE-cadherin expression [6]: markedly attenuated; also recorded: significantly suppressed
- US-CM-induced VE-cadherin expression [6, 16]: markedly attenuated; also recorded: markedly reversed
- GDNF-increased TEER values, effect of inhibitor [7]: almost abolished
- GDNF-induced claudin-5 expression [8]: markedly attenuated; also recorded: significantly suppressed
- US-CM-induced claudin-5 expression [8, 16]: markedly attenuated; also recorded: markedly reversed
- GDNF-decreased permeability of fluorescein and FITC-Dex, effect of inhibitor ([3]; hCMEC/D3 mono-culture, 200 pg/ml GDNF, 3 μM SPP-86 or 5 μM PP2): almost abolished
- decreased permeability of fluorescein and FITC-Dex in the triple co-culture BBB model, effect of inhibitor ([4]; 3 μM SPP-86 or 5 μM PP2): completely reversed
- TEER ([9]; Day3): 56.76 Ω·cm2 and 57.75 Ω·cm2 and 55.77 Ω·cm2 and 59.4 Ω·cm2
- TEER ([9]; Day4): 63.03 Ω·cm2 and 62.37 Ω·cm2 and 61.38 Ω·cm2 and 59.4 Ω·cm2
- TEER ([9]; Day5): 71.94 Ω·cm2 and 75.24 Ω·cm2 and 74.25 Ω·cm2 and 72.27 Ω·cm2
- TEER ([9]; Day6): 75.24 Ω·cm2 and 76.56 Ω·cm2 and 75.9 Ω·cm2 and 74.25 Ω·cm2
- increased TEER values in the triple co-culture BBB model, effect of inhibitor ([9]; day 6, 3 μM SPP-86 or 5 μM PP2): completely reversed

Compound: Oc1c2ccccc2c2c3c(cccc13)N=N2 [SP600125, reference compound]
- GDNF-induced VE-cadherin expression [6]: almost no effect
- GDNF-induced claudin-5 expression [8]: almost no effect

Compound: Cc1ncc2n1-c1ccc(Cl)cc1C(c1ccccc1F)=NC2 [Midazolam]
- PSObs ([10]; ref Summerfield et al., 2007): 2727.00^† μl/min/g
- fu, brain ([1]; ref Kodaira et al., 2011): 0.045^‡ ‡
- Papp A→B ([11]; Papp Mean, Triple co-culture BBB model, mean of 4 replicates): 19.1 ×10⁻⁶ cm/s
- Papp A→B [11, 15]: 19.1 ± 0.24 ×10⁻⁶ cm/s
- Papp A→B [12, 14]: 25.3 ± 1 ×10⁻⁶ cm/s
- PS ([3]; Mono-culture BBB Model): 5060.00 µL/min/g
- PS ([4]; Triple co-culture BBB model): 3818.00 µL/min/g
- PSPre, Mono [13]: 5060.00 µL/min/g

Compound: COc1cc2nc(N3CCN(C(=O)c4ccco4)CC3)nc(N)c2cc1OC [Prazosin]
- PSObs ([10]; ref Di Marco et al., 2019): 169.20^¶ ¶ μl/min/g
- Papp A→B at 30 min ([12]; Papp (individual replicate)): 4.56 ×10⁻⁶ cm/s
